Test results from US20090175845A1, “METHODS FOR IDENTIFYING COMPOUNDS THAT MODULATE PHB DOMAIN PROTEIN ACTIVITY AND COMPOSITIONS THEREOF” (THE TRUSTEES OF COLUMBIA UNIVERSITY IN THE CITY OF NEW YORK, priority 2005, published 2009).

Target: T1, NusA fused to the cholesterol binding domain of Podocin (amino acids 119-284) (Mus musculus, UniProt Q91X05)
T1 construct: made in house; host or cells: E. coli
T1 sequence (Q91X05 119-284): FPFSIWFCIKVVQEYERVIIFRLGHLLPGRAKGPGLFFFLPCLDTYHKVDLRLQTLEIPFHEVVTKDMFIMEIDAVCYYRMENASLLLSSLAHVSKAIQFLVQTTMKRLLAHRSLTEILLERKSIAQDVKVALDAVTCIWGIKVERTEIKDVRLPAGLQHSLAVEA
Experiment: In vitro cholesterol interaction, scintillation counting of bead-bound recombinant protein
Method: In vitro cholesterol interaction. Podocin truncations were cloned into various bacterial expression vectors and tested for the expression of soluble recombinant fusion proteins. […] Purity of the preparation was confirmed on Coomassie gels. For in vitro cholesterol interaction assays 2-20 μg of affinity purified Podocin protein was bound to 30 μl of Ni+ beads and incubated with 0.1 μCi [^3H]cholesterol (Amersham) complexed with low amounts of cyclodextrine. After binding for 10 minutes at 37° C. beads were washed extensively and counted in a scintillation counter. To confirm equal loading of the beads aliquots of the bound protein were run on Coomassie gels. Competition experiments were performed with 1 μg of affinity purified Podocin protein fused to NusA or NusA alone as a control. Samples were incubated with radioactively labeled cholesterol in the absence (no cold competition) or presence (cold competition) of varying amounts of […]. Cold competition was approximately 100-fold excess of cold cholesterol. The sample was washed extensively and subjected to scintillation counting.
The importance of different regions of Podocin for cholesterol binding was tested by fusing them to the extracellular and transmembrane domains of Nephrin. […]

## CC(C)CCC[C@@H](C)[C@H]1CC[C@H]2[C@@H]3CC=C4C[C@@H](O)CC[C@]4(C)[C@H]3CC[C@]12C [cholesterol]
Podocin fragments produced in E. coli, 10 minutes at 37° C.
  direct binding of [3H]cholesterol in vitro: sufficient for cholesterol binding
Approximately 100-fold excess of unlabeled cholesterol
  cold competition of [3H]cholesterol binding: competed
